Results from US20220062240A1, “METHODS OF TREATING CANCER USING A CLK INHIBITOR” (BioSplice Therapeutics, Inc., priority 2018, published 2022).
Like-named read-outs stand apart in the source and are kept apart here.

Assays:
CLK2 = target: T1, CLK2 (Homo sapiens, UniProt P49760); assay: CLK2 kinase activity assay (Z-lyte, Ser/Thr 6 peptide); type: biochemical; conditions: recombinant CLK2 kinase, ATP 60 μM; read-out: EC50
T1 construct: purchased Thermo Fisher (Life Technologies), Z'-LYTE Kinase Assay Kits
Protocol: All reactions were performed in duplicate.

BT-549 = assay: CellTiter-Glo Viability Assay, breast cancer; type: cell-based; conditions: Homo sapiens, 96 h; BT-549, breast cancer, four days; read-out: EC50
CAMA1 = assay: CellTiter-Glo Viability Assay, breast cancer; type: cell-based; conditions: Homo sapiens, CAMA-1, 96 h; CAMA1, breast cancer, four days; read-out: EC50
DU4475 = assay: CellTiter-Glo Viability Assay, breast cancer; type: cell-based; conditions: Homo sapiens, DU-4475, 96 h; DU4475, breast cancer, four days; read-out: EC50
HCC1599 = assay: CellTiter-Glo Viability Assay, breast cancer; type: cell-based; conditions: Homo sapiens, 96 h; HCC1599, breast cancer, four days; read-out: EC50
MCF7 = assay: CellTiter-Glo Viability Assay, breast cancer; type: cell-based; conditions: Homo sapiens, 96 h; MCF7, breast cancer, four days; read-out: EC50
MDA-MB-231-Luc = assay: CellTiter-Glo Viability Assay, breast cancer; type: cell-based; conditions: Homo sapiens, 96 h; MDA-MB-231-Luc, breast cancer, four days; read-out: EC50
T47D = assay: CellTiter-Glo Viability Assay, breast cancer; type: cell-based; conditions: Homo sapiens, 96 h, breast cancer, four days, read-out: EC50
ZR-75-1 = assay: CellTiter-Glo Viability Assay, breast cancer; type: cell-based; conditions: Homo sapiens, 96 h; ZR-75-1, breast cancer, four days; read-out: EC50
all 50 cell lines = assay: CellTiter-Glo Viability Assay, average across all cell lines; type: cell-based; conditions: Homo sapiens; across all 50 cell lines; read-out: average EC50 for inhibition of cancer cell proliferation
Outline: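 Proliferation of a multi-tissue human cancer line panel is assessed over four days at 37° C and 5% CO2, seeding 300-3,000 cells/well. Viability is quantified by CellTiter-Glo luminescence, and EC50 values are calculated.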

[1] = test system: colorectal cancer (6 cell lines); assay: CellTiter-Glo Viability Assay, colorectal cancer; type: cell-based; conditions: Homo sapiens, inhibition of cancer cell proliferation
[2] = test system: haematopoietic & lymphoid tumors (13 cell lines); assay: CellTiter-Glo Viability Assay, haematopoietic & lymphoid tumors; type: cell-based; conditions: Homo sapiens, inhibition of cancer cell proliferation
[3] = test system: liver cancer (3 cell lines); assay: CellTiter-Glo Viability Assay, liver cancer; type: cell-based; conditions: Homo sapiens, inhibition of cancer cell proliferation
[4] = test system: lung cancer (4 cell lines); assay: CellTiter-Glo Viability Assay, lung cancer; type: cell-based; conditions: Homo sapiens, inhibition of cancer cell proliferation
[5] = test system: ovarian cancer (4 cell lines); assay: CellTiter-Glo Viability Assay, ovarian cancer; type: cell-based; conditions: Homo sapiens, inhibition of cancer cell proliferation
[6] = test system: pancreatic cancer (8 cell lines); assay: CellTiter-Glo Viability Assay, pancreatic cancer; type: cell-based; conditions: Homo sapiens, inhibition of cancer cell proliferation
[7] = test system: prostate cancer (5 cell lines); assay: CellTiter-Glo Viability Assay, prostate cancer; type: cell-based; conditions: Homo sapiens
[8] = HCT-116, HCT116 cell line, read-out: Colorectal cancer, EC50 (μM) HCT116
[9] = HT-29, HT29 cell line, read-out: Colorectal cancer, EC50 (μM) HT29
[10] = SW-620, SW620 cell line, read-out: Colorectal cancer, EC50 (μM) SW620
[11] = DLD-1 cell line, read-out: Colorectal cancer, EC50 (μM) DLD-1
[12] = SW48 cell line, read-out: Colorectal cancer, EC50 (μM) SW48
[13] = DND41, DND-41 cell line, read-out: Haematopoietic & Lymphoid tumors, EC50 (μM) DND-41
[14] = MV4-11, MV-4-11 cell line, read-out: Haematopoietic & Lymphoid tumors, EC50 (μM) MV-4-11
[15] = Rec1, REC-1 cell line, read-out: Haematopoietic & Lymphoid tumors, EC50 (μM) REC-1
[16] = SU-DHL-4, SUDHL4 cell line, read-out: Haematopoietic & Lymphoid tumors, EC50 (μM) SUDHL4
[17] = HL-60 cell line, read-out: Haematopoietic & Lymphoid tumors, EC50 (μM) HL-60
[18] = JM1 cell line, read-out: Haematopoietic & Lymphoid tumors, EC50 (μM) JM1
[19] = JURKAT, Clone E6-1 cell line, read-out: Haematopoietic & Lymphoid tumors, EC50 (μM) JURKAT, Clone E6-1
[20] = JeKo-1 cell line, read-out: Haematopoietic & Lymphoid tumors, EC50 (μM) JeKo-1
[21] = KASUMI-1 cell line, read-out: Haematopoietic & Lymphoid tumors, EC50 (μM) KASUMI-1
[22] = Loucy cell line, read-out: Haematopoietic & Lymphoid tumors, EC50 (μM) Loucy
[23] = MOLT-4 cell line, read-out: Haematopoietic & Lymphoid tumors, EC50 (μM) MOLT-4
[24] = TF-1 cell line, read-out: Haematopoietic & Lymphoid tumors, EC50 (μM) TF-1
[25] = TOLEDO cell line, read-out: Haematopoietic & Lymphoid tumors, EC50 (μM) TOLEDO
[26] = SNU-398, SNU398 cell line, read-out: Liver cancer, EC50 SNU398
[27] = HEPG2 cell line, read-out: Liver cancer, EC50 HEPG2
[28] = PLC/PRF/5 cell line, read-out: Liver cancer, EC50 PLC/PRF/5
[29] = A-427, A427 cell line, read-out: Lung cancer, EC50 (μM) A427
[30] = HCC78, HCC-78 cell line, read-out: Lung cancer, EC50 (μM) HCC-78
[31] = NCI-H460 cell line, read-out: Lung cancer, EC50 (μM) NCI-H460
[32] = NCI-H522 cell line, read-out: Lung cancer, EC50 (μM) NCI-H522
[33] = PA-1, PA1 cell line, read-out: Ovarian cancer, EC50 (μM) PA1
[34] = TOV112D, TOV-112D cell line, read-out: Ovarian cancer, EC50 (μM) TOV-112D
[35] = OV-90 cell line, read-out: Ovarian cancer, EC50 (μM) OV-90
[36] = OVCAR-3 cell line, read-out: Ovarian cancer, EC50 (μM) OVCAR-3
[37] = BXPC-3, BxPC3 cell line, read-out: Pancreatic cancer, EC50 BxPC3
[38] = CAPAN-1, Capan1 cell line, read-out: Pancreatic cancer, EC50 Capan1
[39] = Capan-2, Capan2 cell line, read-out: Pancreatic cancer, EC50 Capan2
[40] = MIA PaCa-2 cell line, read-out: Pancreatic cancer, EC50 MIA PaCa-2
[41] = PANC 05.04 cell line, read-out: Pancreatic cancer, EC50 PANC 05.04
[42] = PANC-1 cell line, read-out: Pancreatic cancer, EC50 PANC-1
[43] = UPAFII cell line, read-out: Pancreatic cancer, EC50 UPAFII
[44] = DU-145, read-out: Prostate cancer EC50 Du-145
[45] = PC-3, PC3 cell line, inhibition of cancer cell proliferation, read-out: Prostate cancer EC50 PC3
[46] = 22Rv1 cell line, inhibition of cancer cell proliferation, read-out: Prostate cancer EC50 22Rv1
[47] = LNCap clone FGC cell line, inhibition of cancer cell proliferation, read-out: Prostate cancer EC50 LNCap clone FGC
[48] = VCaP (Sigma) cell line, inhibition of cancer cell proliferation, read-out: Prostate cancer EC50 VCaP (Sigma)

T1 sequence (P49760 whole entry): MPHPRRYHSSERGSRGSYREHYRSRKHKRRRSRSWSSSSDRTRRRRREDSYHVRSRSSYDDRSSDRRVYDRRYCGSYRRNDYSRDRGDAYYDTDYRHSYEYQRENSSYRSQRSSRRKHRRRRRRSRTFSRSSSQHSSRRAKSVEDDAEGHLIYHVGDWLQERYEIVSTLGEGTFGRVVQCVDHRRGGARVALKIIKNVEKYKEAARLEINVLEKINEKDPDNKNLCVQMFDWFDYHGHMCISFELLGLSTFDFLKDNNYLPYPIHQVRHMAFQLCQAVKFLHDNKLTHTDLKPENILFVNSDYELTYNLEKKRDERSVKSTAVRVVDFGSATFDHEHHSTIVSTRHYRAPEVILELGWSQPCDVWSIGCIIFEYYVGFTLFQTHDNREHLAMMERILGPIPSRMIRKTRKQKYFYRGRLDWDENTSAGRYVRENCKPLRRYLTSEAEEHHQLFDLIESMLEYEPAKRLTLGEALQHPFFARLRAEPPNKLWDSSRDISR

## CN1CCCn2cc(nn2)-c2nccc3[nH]c(nc23)-c2n[nH]c3ccc(cc23)-c2cncc(c2)C1 [Compound 57]
CLK2
  EC50: 2.8 nM
BT-549
  EC50: 5.81 µM
CAMA1
  EC50: > 10 µM
DU4475
  EC50: 1660 nM
HCC1599
  EC50: 2200 nM
MCF7
  EC50: > 10 µM
MDA-MB-231-Luc
  EC50: > 10 µM
T47D
  EC50: > 10 µM
ZR-75-1
  EC50: > 10 µM
All 50 cell lines
  EC50: 7.29 µM
[1]; [8]
  EC50: > 10 µM
[1]; [9]
  EC50: > 10 µM
[1]; [10]
  EC50: 7.7 µM
[1]; [11]
  EC50: > 10 µM
[1]; [12]
  EC50: 2.03 µM
[1]; SW480 cell line, read-out: Colorectal cancer, EC50 (μM) SW480
  EC50: > 10 µM
[2]; [13]
  EC50: 2.38 µM
[2]; [14]
  EC50: 0.188 µM
[2]; [15]
  EC50: 6.85 µM
[2]; [16]
  EC50: 0.953 µM
[2]; [17]
  EC50: 3.13 µM
[2]; [18]
  EC50: 1.68 µM
[2]; [19]
  EC50: > 10 µM
[2]; [20]
  EC50: 0.917 µM
[2]; [21]
  EC50: 9.46 µM
[2]; [22]
  EC50: 1.71 µM
[2]; [23]
  EC50: > 10 µM
[2]; [24]
  EC50: 4.32 µM
[2]; [25]
  EC50: 1.85 µM
[3]; [26]
  EC50: 3.38 µM
[3]; [27]
  EC50: > 10 µM
[3]; [28]
  EC50: > 10 µM
[4]; [29]
  EC50: 7.79 µM
[4]; [30]
  EC50: > 10 µM
[4]; [31]
  EC50: > 10 µM
[4]; [32]
  EC50: 7.58 µM
[5]; [33]
  EC50: > 10 µM
[5]; [34]
  EC50: > 10 µM
[5]; [35]
  EC50: > 10 µM
[5]; [36]
  EC50: 3.89 µM
[6]; [37]
  EC50: 7.25 µM
[6]; [38]
  EC50: > 10 µM
[6]; [39]
  EC50: > 10 µM
[6]; [40]
  EC50: 6.72 µM
[6]; [41]
  EC50: > 10 µM
[6]; [42]
  EC50: > 10 µM
[6]; [43]
  EC50: > 10 µM
[7]; [44]
  EC50: > 10 µM
[7]; [45]
  EC50: 8.34 µM
[7]; [46]
  EC50: 6.98 µM
[7]; [47]
  EC50: > 10 µM
[7]; [48]
  EC50: > 10 µM

## O=C1CCc2cccc(c2)-c2cncc(c2)NC(=O)c2n[nH]c3ccc(cc23)-c2cncc(c2)CN1 [Compound 62]
CLK2
  EC50: 5.3 nM
BT-549
  EC50: > 10 µM
CAMA1
  EC50: > 10 µM
DU4475
  EC50: 387 nM
HCC1599
  EC50: 26 nM
MCF7
  EC50: > 10 µM
MDA-MB-231-Luc
  EC50: > 10 µM
T47D
  EC50: > 10 µM
ZR-75-1
  EC50: > 10 µM
All 50 cell lines
  EC50: 8.55 µM
[1]; [8]
  EC50: > 10 µM
[1]; [9]
  EC50: > 10 µM
[1]; [10]
  EC50: > 10 µM
[1]; [11]
  EC50: > 10 µM
[1]; [12]
  EC50: 0.393 µM
[2]; [13]
  EC50: 7.8 µM
[2]; [14]
  EC50: 0.19 µM
[2]; [15]
  EC50: > 10 µM
[2]; [16]
  EC50: > 10 µM
[2]; [17]
  EC50: > 10 µM
[2]; [18]
  EC50: > 10 µM
[2]; [19]
  EC50: > 10 µM
[2]; [20]
  EC50: 0.452 µM
[2]; [21]
  EC50: > 10 µM
[2]; [22]
  EC50: > 10 µM
[2]; [23]
  EC50: > 10 µM
[2]; [24]
  EC50: > 10 µM
[2]; [25]
  EC50: > 10 µM
[3]; [26]
  EC50: 0.473 µM
[3]; [27]
  EC50: > 10 µM
[3]; [28]
  EC50: > 10 µM
[4]; [29]
  EC50: > 10 µM
[4]; [30]
  EC50: > 10 µM
[4]; [31]
  EC50: > 10 µM
[4]; [32]
  EC50: > 10 µM
[5]; [33]
  EC50: > 10 µM
[5]; [34]
  EC50: > 10 µM
[5]; [35]
  EC50: > 10 µM
[5]; [36]
  EC50: 0.554 µM
[6]; [37]
  EC50: > 10 µM
[6]; [38]
  EC50: > 10 µM
[6]; [39]
  EC50: > 10 µM
[6]; [40]
  EC50: > 10 µM
[6]; [41]
  EC50: > 10 µM
[6]; [42]
  EC50: > 10 µM
[6]; [43]
  EC50: > 10 µM
[7]; [44]
  EC50: > 10 µM
[7]; [45]
  EC50: > 10 µM
[7]; [46]
  EC50: 7.43 µM
[7]; [47]
  EC50: > 10 µM
[7]; [48]
  EC50: > 10 µM
